Assay results as given in patent publication US4820734A, “Phenethylamine derivatives” (Hoffmann-La Roche Inc., priority 1983, dated 1989).
pIC50: −log10 of the molar value. Counter-ions that a name gives are not always drawn.

Tests used:
[1] = Acute toxicity, LD50 after single oral administration to mice; conditions: mouse, in vivo
Source text: (§1) As already mentioned earlier, the compounds of formula I and their pharmaceutically acceptable acid addition salts have valuable pharmacodynamic properties. In particular, they have interesting analgesic, anti-depressant and acute inflammation-inhibiting properties. […] In the following Table there are given the results determined in these tests for some representative members of the class of compound defined by general formula I. Moreover, the Table contains data concerning the acute toxicity of these compounds (LD50 after single oral administration to mice).

[2] = Writhing Test on the mouse (analgesic activity); format: in vivo; conditions: po
Source text: as §1

[3] = tested on: serotonin-uptake; assay: Serotonin-uptake Test (antidepressant activity; M. J. Kuhar et al.); format: biochemical
Source text: as §1

CN(C)C[C@@H](c1ccc(Cl)c(Cl)c1)[C@@H]1CCCC[C@@H]1O (relative stereo) [rac-(1S*)-cis-2-/(R*)-3,4-dichloro-α-[(dimethylamino)methyl]benzyl/cyclohexanol hydrochloride]
LD50 [1]: 62.6 to 125 mg/kg | ED50 [2]: 9.7 mg/kg | pIC50 [3]: 7.68

CN(C)C[C@@H](c1ccc(Cl)cc1)[C@@H]1CCCC[C@@H]1O (relative stereo) [rac-(1S*)-cis-2-/(R*)-4-chloro-α-[(dimethylamino)methyl]benzyl/cyclohexanol hydrochloride]
LD50 [1]: 312 to 625 mg/kg | ED50 [2]: 18 mg/kg | pIC50 [3]: 7.06

COc1ccc([C@H](CN(C)C)[C@@H]2CCCC[C@@H]2O)cc1 (relative stereo) [rac-(1S*)-cis-2-/(R*)-4-methoxy-α-[(dimethylamino)methyl]benzyl/cyclohexanol hydrochloride]
LD50 [1]: 250 to 500 mg/kg | ED50 [2]: 23 mg/kg | pIC50 [3]: 6.92

COc1ccc([C@H](CN(C)C)[C@@H]2CCCC[C@@H]2O)cc1OC (relative stereo) [rac-(1S*)-cis-2-/(R*)-α-[(dimethylamino)methyl]-3,4-dimethoxybenzyl/cyclohexanol hydrochloride]
LD50 [1]: 500 to 1000 mg/kg | ED50 [2]: 10 mg/kg | pIC50 [3]: 7.00

CN(C)C[C@@H](c1ccc(O)cc1)[C@@H]1CCCC[C@@H]1O (relative stereo) [rac-(1S*)-cis-2-/(R*)-α-[(dimethylamino)methyl]-4-hydroxybenzyl/cyclohexanol]
LD50 [1]: 500 to 1000 mg/kg | ED50 [2]: 8.4 mg/kg | pIC50 [3]: 6.74

CN(C)C[C@@H](c1ccc(Cl)cc1)[C@@H]1CCCCC1=O (relative stereo) [rac-(2S*)-2-/(R*)-4-chloro-α-[(dimethylamino)methyl]benzyl/cyclohexanone hydrochloride]
LD50 [1]: 156 to 312 mg/kg | ED50 [2]: 22 mg/kg | pIC50 [3]: 6.62

CN(C)C[C@@H](c1ccc(Cl)cc1)[C@@H]1CCCC[C@@H]1O [(+)-(1S)-cis-2-/(R)-4-chloro-α-[(dimethylamino)methyl]benzyl/cyclohexanol hydrochloride]
LD50 [1]: 125 to 250 mg/kg | ED50 [2]: 14 mg/kg | pIC50 [3]: 6.96

CN(C)C[C@H](c1ccc(Cl)cc1)[C@H]1CCCC[C@H]1O [(-)-(1R)-cis-2-/(S)-4-chloro-α-[(dimethylamino)methyl]benzyl/cyclohexanol hydrochloride]
LD50 [1]: 125 to 250 mg/kg | ED50 [2]: 19 mg/kg | pIC50 [3]: 7.26
